Measured values reported in PubChem BioAssay (NCI).
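How tested: cells in 96-well plates exposed to compound for 48 hours at five concentrations. TGI denotes the concentration required for complete inhibition of growth.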

Experiments:
Assay in all cases: NCI anticancer screen, dose series, 48 h
[1] = tested on: ACHN renal
[2] = tested on: SF-295 CNS
[3] = tested on: 786-0 renal
[4] = tested on: UACC-62 melanoma
[5] = tested on: SF-268 CNS
[6] = tested on: CAKI-1 renal
[7] = tested on: MOLT-4 leukemia
[8] = tested on: COLO 205 colon
[9] = tested on: NCI-H460 lung
[10] = tested on: SK-MEL-5 melanoma
[11] = tested on: T-47D breast
[12] = tested on: TK-10 renal
[13] = tested on: NCI-H23 lung
[14] = tested on: HT29 colon
[15] = tested on: OVCAR-3 ovarian
[16] = tested on: HOP-92 NSCLC

SMILES | TGI [1] | TGI [2] | TGI [3] | TGI [4] | TGI [5] | TGI [6] | TGI [7] | TGI [8] | TGI [9] | TGI [10] | TGI [11] | TGI [12] | TGI [13] | TGI [14] | TGI [15] | TGI [16]
O=C1CCCc2cc3c(cc21)CCC3C(=O)O (stereo not given) | > 100 µM | > 100 µM | > 100 µM | > 100 µM | > 100 µM | > 100 µM | > 100 µM | > 100 µM | > 100 µM | > 100 µM | > 100 µM | > 100 µM | > 100 µM | > 100 µM | – | –
COc1ccc(C2C(Cl)C(=O)N2NC(=O)Cc2ccccc2)cc1 (stereo not given) | > 100 µM | > 100 µM | > 100 µM | > 100 µM | > 100 µM | > 100 µM | > 100 µM | > 100 µM | > 100 µM | > 100 µM | – | > 100 µM | > 100 µM | > 100 µM | > 100 µM | –
CC1N(C)C(=O)OC12CCN(CCCC(=O)c1ccc(F)cc1)CC2 (stereo not given) | > 100 µM | > 100 µM | > 100 µM | > 100 µM | > 100 µM | > 100 µM | > 100 µM | > 100 µM | > 100 µM | > 100 µM | > 100 µM | > 100 µM | > 100 µM | > 100 µM | > 100 µM | –
CCN(CC)Cc1cc(Nc2c3ccccc3nc3c2[nH]c2ccccc23)ccc1O | 3.53 µM | 2.83 µM | 2.8 µM | 3.01 µM | – | 4.2 µM | > 100 µM | 2.19 µM | 2.71 µM | 3.51 µM | – | 8.61 µM | 2.8 µM | 2.01 µM | – | 3.46 µM
COc1ccc(CN(CCc2c[nH]c3ccccc23)Cc2ccc(OC)cc2)cc1 | 17.8 µM | 5.78 µM | 12.6 µM | 5.6 µM | 18 µM | > 30.2 µM | > 100 µM | – | > 61.7 µM | 9.74 µM | – | 3.97 µM | 10.5 µM | 6.41 µM | 9.25 µM | 9.85 µM
Cc1cc(Cl)ccc1N=NC(=O)NNc1ccc(Cl)cc1C | 40.3 µM | – | 29.9 µM | 24.8 µM | 37.5 µM | – | 48.9 µM | – | 27.4 µM | 26.9 µM | 26.6 µM | 38.3 µM | 29.8 µM | 36.4 µM | 31 µM | –
CCOC(=O)CC[C@@H](NC(=O)c1ccc(N[C@@H]2c3cc4c(cc3C(c3cc(OC)c(O)c(OC)c3)C3C(=O)OC[C@@H]32)OCO4)cc1)C(=O)OCC (stereo not given in full) | 0.0379 µM | 0.0497 µM | > 10 µM | 0.0557 µM | 0.0686 µM | 0.0539 µM | > 10 µM | – | 0.0174 µM | 0.144 µM | – | 0.375 µM | 0.0424 µM | 0.751 µM | 0.37 µM | 0.0808 µM
O=C1CCC2SC1CCC2=O | > 100 µM | > 100 µM | > 100 µM | – | > 100 µM | > 100 µM | > 100 µM | > 100 µM | > 100 µM | > 100 µM | – | > 100 µM | > 100 µM | > 100 µM | > 100 µM | > 100 µM
COc1cc2[nH]c(-c3cccc(N(C)C)c3)cc(=O)c2cc1OC | > 100 µM | > 21.4 µM | > 100 µM | > 100 µM | > 100 µM | – | > 100 µM | 19.1 µM | > 100 µM | > 100 µM | – | > 100 µM | > 100 µM | > 25.9 µM | – | > 100 µM
N#CC12C3C4CC5C6C4C1C6C(O)(C53)N2Cc1ccccc1 (stereo not given) | > 100 µM | > 100 µM | > 100 µM | > 100 µM | > 100 µM | > 100 µM | > 100 µM | > 100 µM | > 100 µM | > 100 µM | – | > 100 µM | > 100 µM | > 100 µM | > 100 µM | > 100 µM
C=CCOCn1ccc(=O)[nH]c1=O | > 100 µM | > 100 µM | > 100 µM | > 100 µM | > 100 µM | > 100 µM | > 100 µM | > 100 µM | > 100 µM | > 100 µM | > 100 µM | > 100 µM | > 100 µM | > 100 µM | – | –
CSc1cc(Cl)c(C)cc1S(=O)(=O)NC(=O)NNc1ccc(F)c(Cl)c1 | > 100 µM | > 100 µM | > 100 µM | – | > 100 µM | > 100 µM | > 100 µM | > 100 µM | > 100 µM | > 100 µM | > 100 µM | – | – | > 100 µM | > 100 µM | –
Cc1c2c(n(CCc3ccccc3)c1C)NN=C(C#N)S2(=O)=O | > 100 µM | – | > 100 µM | > 100 µM | > 100 µM | – | > 100 µM | > 100 µM | > 100 µM | > 100 µM | > 100 µM | > 100 µM | > 100 µM | > 100 µM | > 100 µM | –
COC(=O)N/N=C/c1oc(-c2cccc([N+](=O)[O-])c2)c(-c2cccc([N+](=O)[O-])c2)c1[N+](=O)[O-] | > 100 µM | > 100 µM | > 100 µM | > 100 µM | > 100 µM | – | 89.9 µM | > 100 µM | > 100 µM | > 100 µM | – | > 100 µM | > 100 µM | > 100 µM | > 100 µM | > 100 µM
S=C(Nc1cccc(Cl)c1)Nc1ccccn1 | – | > 100 µM | > 100 µM | > 100 µM | > 100 µM | > 100 µM | > 100 µM | > 100 µM | > 100 µM | > 100 µM | > 100 µM | > 100 µM | – | > 100 µM | > 100 µM | –
O=C(Cc1ccccc1)c1ccc2[nH]c(=O)oc2c1 | > 100 µM | > 100 µM | > 100 µM | > 100 µM | > 100 µM | > 100 µM | > 100 µM | > 100 µM | > 100 µM | – | – | > 100 µM | > 100 µM | > 100 µM | > 100 µM | –
NC1CC(=O)c2cc(Br)sc21 (stereo not given) | > 100 µM | – | > 100 µM | > 100 µM | > 100 µM | > 100 µM | > 100 µM | > 100 µM | > 100 µM | > 100 µM | > 100 µM | > 100 µM | – | > 100 µM | > 100 µM | –
